Experimental findings from patent US20140243261A1, “Method for treating diabetes and fatty liver disese by stimulating cellular metabolism” (priority 2013, published 2014) are described below.

In this experiment the test system is resting carbohydrate metabolism. Put plainly: Resting metabolism by indirect calorimetric measurement in patients after pulsed IV insulin boluses with oral carbohydrate load. The experiment is classed as in vivo, human. An excerpt: A basic treatment sequence, in one preferred embodiment, is as follows. • Settle the patient and establish an intravenous (IV) flow. • Measure blood glucose. • From Table 1, arrange for the specified grams of glucose be made available to the patient. • Have the patient consume the glucose relatively quickly (time scale of minutes). Drinking an appropriate amount of GLUCOLA at a convenient rate, such as over about 30 to 90 seconds, is a useful range and route of administration. • Start IV boluses of hormone. Insulin is a useful and typical hormone for this application. • Administer hormone at the selected quantity, rate, and pattern. These details are discussed in more detail in the following sections. A typical sequence will administer the selected amount of insulin (milliunits, determined as per kilogram body weight of the patient). A useful bolus is fairly quick, such as less than five seconds. Bolus injections are repeated periodically. A useful scheme is to give boluses every six minutes, over the course of one hour. It can be useful to give boluses more rapidly. Every four minutes is a useful number. Spacing of approximately three to approximately ten minutes can be useful, and we have not tested the outer ranges of usefulness.
One useful way of assessing metabolic activity and health is to measure the volume of Carbon Dioxide Production and a […]. In example (a) below, CO2 production initially equals 0.124 L per 30 seconds of exhaled breath, with a Resting Energy Ratio of 0.66. The ratio is how one can test the amount of carbohydrate metabolized and thus producing ATP to verify the patient is metabolizing carbohydrates. Below […] is lipid metabolism, and above […] is carbohydrate metabolism.
It is useful for the metabolic assessment of the present invention to express exhaled CO2 in volume/time, such as L/30 sec. This assessment varies by patient, according to their size, lung capacity and other factors understood by one skilled in the art of pulmonary function and metabolism.
A useful tool for assessing this is from Vacuumed. The Vacuumed website (www) vacuumed (corn) includes a good discussion of the resting metabolism measurement. • VO2=oxygen uptake (ml/min) • VCO2=carbon dioxide output (ml/min) • Respiratory quotient (RQ)=VCO2/VO2
• a. The treatment form has 3 one-hour sessions with from 10 to 60 minutes rest between treatments. • b. TREATMENT GOAL: The goal of the treatment is to obtain increased ATP production from carbohydrates, by metabolizing approximately 100 g of glucose for each hour including the rest period. A desirable treatment blood glucose for oral carbohydrates is 150 mg/dl or 8.3 mmol/L of blood glucose. That equates to approximately 380 calories of carbohydrates for each 1-hour treatment session, or a total of 1,140 calories total for the 4.5 to 5.5 hours. • c. In one embodiment, patients' serum glucose level is monitored every thirty minutes to determine carbohydrate uptake and utilization. Resting metabolic measurement by an indirect calorimeter such as the Vacuumed Metabolic Measurement system provides the level of production of ATP from carbohydrates to validate the increase. • d. In order to maintain serum glucose levels sufficient to provide for a carbohydrate load for the production of ATP, the serum glucose is maintained at 150 mg/dl or 8.3 mmol/L or more by starting at 10 milliunits per kilo and increasing by 2 milliunits each 30 minutes until the desired level is achieved. This level is constantly adjusted each 30 minutes until the nominal load is obtained, and then continues for the remainder of the treatment, and is used for subsequent treatments.
a. In a preferred implementation, these patients: • i. Were checked for serum blood glucose (BG) about every 30 minutes, and for about 4.5 hours. • ii. Were given glucose averaging approximately 1,200 calories over that time. • iii. […]

Take insulin: the “increase in ATP from carbohydrates” value reads like this: (person with Alzheimer's Disease, 83 kg, three one-hour sessions, total 33 units insulin, 14 milliunits/kg) “approximately 38%”; (person, 50.5 kg, three one-hour sessions, total 42 units insulin, 28 milliunits/kg) “approximately 280%”; (person, 70 kg, three one-hour sessions, total 45 units insulin, 22 milliunits/kg) “approximately 320%”; (person, 85 kg, three one-hour sessions, total 63 units insulin, 25 milliunits/kg) “approximately 205%”. Besides, the “Carbon Dioxide Production after treatment” value stood at 0.208 L per 30 seconds (person with Alzheimer's Disease, 83 kg, three one-hour sessions, total 33 units insulin, 14 milliunits/kg, baseline 0.151); 0.342 L per 30 seconds (person, 50.5 kg, three one-hour sessions, total 42 units insulin, 28 milliunits/kg, baseline 0.121); 0.293 L per 30 seconds (person, 70 kg, three one-hour sessions, total 45 units insulin, 22 milliunits/kg, baseline 0.091); 0.255 L per 30 seconds (person, 85 kg, three one-hour sessions plus rest cycles, total 63 units insulin, 25 milliunits/kg, baseline 0.124). Moreover, the “Resting Energy Ratio after treatment” value was 0.99 (person with Alzheimer's Disease, 83 kg, three one-hour sessions, total 33 units insulin, 14 milliunits/kg, baseline 0.79); 0.98 (person, 50.5 kg, three one-hour sessions, total 42 units insulin, 28 milliunits/kg, baseline 0.67); 0.98 (person, 70 kg, three one-hour sessions, total 45 units insulin, 22 milliunits/kg, baseline 0.63); 0.96 (person, 85 kg, three one-hour sessions, total 63 units insulin, 25 milliunits/kg, baseline 0.66).
